Experimental data published in PMC12661054, “The CIP2A-TOPBP1 axis facilitates mitotic DNA repair via MiDAS and MMEJ” (Nature Communications, 2025).

Key:
[1] = test system: HCT116-TOPBP1-mAID-Clover cells; assay: TOPBP1 degron assay, HCT116-TOPBP1-mAID-Clover cells; type: cell-based, human
Experimental: Immunofluorescence microscopy
(§1) For detection of EdU incorporation in mitosis and the analysis of recruitment of TOPBP1, CIP2A, MUS81, ERCC1, TOPBP1-mAID-Clover, eGFP tagged SLX4 and eGFP tagged Polθ in RPE1 p53^-/- FRT/TR and DLD1 BRCA2^-/-cells, respectively, cells were grown on 13 mm 1.5 thickness coverslips and treated as described. Subsequently cells were simultaneously fixed and permeabilised in PTEMF buffer (20 mM PIPES pH 6.8, 10 mM EGTA, 0.2% Triton X-100, 1 mM MgCl2 and 4% formaldehyde) for 10 minutes at room temperature. For detection of micronuclei, cells were fixed in 250 mM HEPES pH 7.5, 0.1% Triton X-100, 4% PFA in PBS for 20 minutes at 4 °C.
(§2) Quantification was carried out using FIJI (ImageJ, RRID:SCR_003070) software, CellProfiler (Broad Institute), Harmony (Revvity) or using Aivia (Leica Microsystems). Images of mitotic cells were analysed in 3D with maximum Z projections used for representative images in the manuscript to assist with visualisation.For interphase cells 2D images were analysed.

RPE1 p53-/- cells = assay: Immunofluorescence foci, RPE1 p53-/- cells; type: cell-based, human
Experimental: Immunofluorescence microscopy […] For detection of micronuclei, cells were fixed in 250 mM HEPES pH 7.5, 0.1% Triton X-100, 4% PFA in PBS for 20 minutes at 4 °C. Coverslips were then incubated for 5 min in 1x PBS with three buffer changes followed by incubation with 0.5% Triton X-100/ PBS for 10 min at room temperature. Coverslips were then incubated for 5 minutes in 1x PBS with three buffer changes. For EdU detection coverslips were transferred to a humidified chamber and incubated in EdU click it reaction buffer containing Alexafluor 488 azide for 1 h at room temperature followed by three 5 min washes in 1x PBS. Coverslips were then incubated in 5% FBS/PBS for 1 h followed by overnight incubation at 4 °C with primary antibody diluted in 5% FBS/PBS. Coverslips were then washed 3 × 5 min in 1x PBS followed by 1 h incubation at room temperature in 5% FBS/PBS containing secondary antibodies. Coverslips were incubated a further three times for 5 min in 1x PBS. Coverslips were then mounted on superfrost microscopy slides using Vectashield mounting medium with DAPI (Vector laboratories, […]). […] Cells were fixed in […] for 15 min at room temperature, followed by 3 × 5 min washes in 1xPBS. Coverslips were then incubated in 0.5% Triton-X/PBS for 10 min at room temperature, followed by a further 3 × 5 min 1xPBS washes. Coverslips were then incubated in blocking buffer (2% BSA, 0.05% Tween-20) for 1 h at room temperature, followed by incubation in respective primary antibodies overnight at 4 °C. Coverslips were then washed 3x for 5 min in 1x PBS followed by incubation for 1 h at room temperature in blocking buffer containing secondary antibodies. Coverslips were then washed 3x for 5 min in 1x PBS and mounted with Vectashield PLUS antifade mounting medium with DAPI (Vector laboratories, […]). Images were acquired using a Zeiss Axio Observer Z1 MarianasTM Microscope attached with a CSU-SoRa spinning disk unit using either a Photometrics Kinetix sCMOS camera built by Intelligent Imaging Innovations (3i) or a Zeiss Axio Observer Z1 MarianasTM Microscope attached with a CSUX1 spinning disk unit and Hamamatsu Flash 4 CMOS camera built by Intelligent Imaging Innovations (3i) or using an Opera Phenix Plus high content imaging system (Revvity). In each case 405, 488 and 640 laser lines were used in addition to DAPI, GFP/FITC, iRFP/CY5 emission filters. Quantification was carried out using FIJI (ImageJ, RRID:SCR_003070) software, CellProfiler (Broad Institute), Harmony (Revvity) or using […] Microsystems). Images of mitotic cells were analysed in 3D with maximum Z projections used for representative images in the manuscript to assist with visualisation.For interphase cells 2D images were analysed.

TOPBP1 BRCT 4-5 = assay: Fluorescence polarisation, TOPBP1 BRCT 4-5; type: binding, human; conditions: peptide 100 nM, pH 7.5
Experimental: (§3) In vitro fluorescence polarisation
(§4) Fluorescein-labelled peptides corresponding to amino acids 1253-1267 or 1470-1483 of SLX4 incorporating pT1260 or pT1476 respectively, were incubated at a concentration of 100 nM at room temperature with increasing concentrations of TOPBP1 WT or mutant BRCT module variants[26] in 25 mM HEPES pH 7.5, 150 mM NaCl, 1 mM EDTA, 0.25 mM TCEP, 0.002% (v/v) Tween 20 in a black 96-well polypropylene plate. Additional experiments performed with dephosphorylated peptide were achieved though incubation with Lambda phosphatase supplemented with 1 mM MnCl2 to remove the phosphorylation on the peptide. Fluorescence polarisation was measured in a CLARIOstar multimode microplate reader. Binding curves were calculated assuming a single binding site with non-specific binding component, using Graphpad Prism10.2.3 (GraphPad Prism, RRID: SCR_002798). Binding affinities are presented as calculated values alongside the 95% CI values. The presented graphs represent data plotted with the non-specific binding component subtracted.

TOPBP1 BRCT 0-1-2 WT = biological target: T1, TOPBP1 BRCT 0-1-2 WT (Homo sapiens, UniProt Q92547); assay: Fluorescence polarisation, TOPBP1 BRCT0-1-2 WT; type: binding; conditions: GST-tagged TOPBP1 fragment, peptide 100 nM, pH 7.5
T1 construct: transformed with pGEX-6P-1 TOPBP1(BRCT0-2 1-290) WT and K155E, K250E and K155E/K250E mutant variants; GST (N); made in house; host or cells: E. coli BL21(DE3)
Experimental: E.coli BL21(DE3) cells were transformed with pGEX-6P-1 TOPBP1(BRCT0-2 1-290) WT and K155E, K250E and K155E/K250E mutant variants for protein expression. Cell pellets were resuspended in lysis buffer containing 25 mM HEPES pH 7.5, 200 mM NaCl and 0.5 mM TCEP supplemented with 50U Turbo DNase, disrupted by sonication, and the resulting lysate clarified by centrifugation at 36,000 x g for 60 min at 4 °C. The supernatant was applied to a 5 ml HiTrap GST column, then washed with buffer containing 50 mM HEPES pH 7.5, 1000 mM NaCl, 0.25 mM TCEP, before the retained protein was eluted by application of the lysis buffer supplemented with 20 mM glutathione. […]
as §3
Fluorescein-labelled peptides corresponding to amino acids 1253-1267 or 1470-1483 of SLX4 incorporating pT1260 or pT1476 respectively, were incubated at a concentration of 100 nM at room temperature with increasing concentrations of TOPBP1 WT or mutant BRCT module variants[26] in 25 mM HEPES pH 7.5, 150 mM NaCl, 1 mM EDTA, 0.25 mM TCEP, 0.002% (v/v) Tween 20 in a black 96-well polypropylene plate. […] Fluorescence polarisation was measured in a CLARIOstar multimode microplate reader. Binding curves were calculated assuming a single binding site with non-specific binding component, using Graphpad Prism10.2.3 (GraphPad Prism, RRID: SCR_002798). […]

TOPBP1 BRCT 7-8 = assay: Fluorescence polarisation, TOPBP1 BRCT 7-8; type: binding, human; conditions: peptide 100 nM, pH 7.5
Experimental: as §3, §4

RPE1 p53-/- FRT/TR cells = assay: Micronuclei formation, RPE1 p53-/- FRT/TR cells; type: cell-based, human; conditions: 5 µM ART558, 18 h, with 400 nM aphidicolin, three independent experiments
Experimental: as §1
Coverslips were then incubated for 5 min in 1x PBS with three buffer changes followed by incubation with 0.5% Triton X-100/ PBS for 10 min at room temperature. Coverslips were then incubated for 5 minutes in 1x PBS with three buffer changes. […]
as §2

DLD1 BRCA2-/- cells = assay: Proliferation (Incucyte), DLD1 BRCA2-/- cells; type: cell-based, human; conditions: 5 µM ART558 + siSLX4, compared to siCIP2A; three independent experiments
Experimental: For proliferation analysis of DLD1 BRCA2^-/- cells after treatment with siRNA as indicated, 72 h post-transfection of the first pulse of siRNA, 1500 cells were seeded per well in a PhenoPlate 96-well optically clear tissue culture plate (Revvity, 6055302). […] The following day the media was aspirated and replaced with 200 µl of RPMI 1640 medium containing standard antibiotics, 10% FBS and 2 mM L-glutatmine.
To analyse cellular proliferation of DLD1 BRCA2^-/- or SUM149PT BRCA1^-/-cells expressing a minimal SLX4 T1260 containing fragment, 1500 cells were seeded per well in a PhenoPlate 96-well optically clear tissue culture plate (Revvity, 6055302). […] The following day the medium was aspirated and replaced with 200 µl of RPMI 1640 medium containing standard antibiotics, 10% FBS and 2 mM L-glutatmine (DLD1 BRCA2^-/- SLX4 T1260 fragment cells or empty vector control expressing) or S Ham’s F-12 medium supplemented with 5% FBS, 10 μg/mL insulin, 0.5 μg/mL hydrocortisone and penicillin/streptomycin antibiotics for SUM149PT BRCA1^-/- (SLX4 T1260 fragment or empty vector control expressing) containing 1 µg/ml doxycycline.

T1 sequence (Q92547 1-290): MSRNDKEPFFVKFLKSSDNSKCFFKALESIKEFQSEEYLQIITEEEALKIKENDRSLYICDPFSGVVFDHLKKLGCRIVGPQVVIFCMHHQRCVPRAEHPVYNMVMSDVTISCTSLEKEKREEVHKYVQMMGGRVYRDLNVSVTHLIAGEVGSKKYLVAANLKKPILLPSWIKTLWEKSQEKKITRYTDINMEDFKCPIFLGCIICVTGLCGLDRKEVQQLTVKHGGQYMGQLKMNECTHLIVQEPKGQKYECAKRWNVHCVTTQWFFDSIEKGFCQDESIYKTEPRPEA

## O=C(O)Cc1c[nH]c2ccccc12 [IAA, Indole-3-acetic acid]
[1]; 500 µM IAA, 2 h, 40 ng/ml nocodazole, three independent experiments
  MUS81 foci formation in prometaphase after acute TOPBP1 degradation: near total abolishment of MUS81 foci formation in prometaphase
[1]; IAA-induced degradation of TOPBP1 in G2/M, release into mitosis
  anaphase abnormalities after acute TOPBP1 degradation: marked increase in anaphase abnormalities

## C[C@@]1(CO)[C@H](O)CC[C@@]2(C)[C@H]1CC[C@H]1C[C@@H]3C[C@@]12CC[C@]3(O)CO [aphidicolin]
RPE1 p53-/- cells; 400 nM aphidicolin 18 h, nocodazole 60 ng/ml 2 h, RPE1 p53-/- FRT/TR WT, three experiments
  CIP2A–γH2AX colocalising foci in mitosis: striking increase in CIP2A–γH2AX colocalising foci in mitosis
RPE1 p53-/- cells; 400 nM aphidicolin 18 h, nocodazole 60 ng/ml 2 h, RPE1 p53-/- FRT/TR, two experiments (peer review file Fig. R1B)
  RAD9 TOPBP1 colocalising foci: increase in response to aphidicolin treatment
RPE1 p53-/- cells; 400 nM aphidicolin 18 h, nocodazole 60 ng/ml 2 h, RPE1 p53-/- SLX4-/- + eGFP-SLX4 WT, three independent experiments
  WT SLX4 recruitment to prometaphase chromatin, colocalised with CIP2A: recruited to prometaphase chromatin in response to replicative stress induced by aphidicolin and colocalised with CIP2A
RPE1 p53-/- cells; 400 nM aphidicolin 18 h, nocodazole 60 ng/ml 2 h, RPE1 p53-/- WT, three experiments
  colocalisation between CIP2A and FANCD2 foci on mitotic chromatin: detected colocalisation between CIP2A and FANCD2 foci on mitotic chromatin
RPE1 p53-/- cells; RPE1 cells treated with aphidicolin
  TOPBP1, SLX4, and MUS81 foci during interphase: elevated formation of TOPBP1, SLX4, and MUS81 foci during interphase
RPE1 p53-/- cells; RPE1 cells, aphidicolin
  mitotic colocalisation of SLX4, MUS81 or ERCC1 with TOPBP1 in prometaphase: elevated mitotic colocalisation of SLX4, MUS81 or ERCC1 with TOPBP1 in prometaphase
RPE1 p53-/- cells; RPE1 p53-/- cells treated with aphidicolin
  colocalisation between γH2AX and MUS81: The same observation was made for colocalisation between γH2AX and MUS81
RPE1 p53-/- cells; aphidicolin treated RPE1 p53-/- cells
  colocalising γH2AX and SLX4 foci: significant increase in colocalising γH2AX and SLX4 foci
RPE1 p53-/- cells; aphidicolin-treated RPE1 cells compared to control
  MDC1 foci formation in mitosis: elevated MDC1 foci formation in mitosis

## ‘Flu’-GYGSPGLLDT(pT)PIRGSCT [SLX4 pT1476, Fluorescein-labelled peptide corresponding to amino acids 1470-1483 of SLX4 incorporating pT1476]
TOPBP1 BRCT 4-5
  interaction with TOPBP1 BRCTs 4-5: no interaction was detected
TOPBP1 BRCT 0-1-2 WT
  interaction with TOPBP1 BRCTs 0-1-2: did not bind
TOPBP1 BRCT 7-8
  interaction with TOPBP1 BRCTs 7-8: no interaction was detected

## Cc1cccc(N(C)C(=O)[C@@H]2[C@H](O)CCN2c2nc(C)cc(C(F)(F)F)c2C#N)c1 [Polθi]
RPE1 p53-/- FRT/TR cells
  micronuclei formation, WT cells: increase in micronuclei formation
DLD1 BRCA2-/- cells
  proliferation, DLD1 BRCA2-/- cells depleted of SLX4: broadly similar loss of proliferative capacity compared to the single depletion of CIP2A alone
